Data taken from ChEMBL document CHEMBL1137131, “Synthesis and cytotoxicity of water soluble quaternary salt derivatives of camptothecin” (Bioorg Med Chem Lett, 2004).
Converted amounts (≈) assume the structure as drawn.

What was measured:
Format in all cases: functional, cell-based
KB = experiment: In vitro cytotoxicity against KB cell line (human epidermoid carcinoma of the nasopharynx) using MTT assay
HCT-8 = experiment: In vitro cytotoxicity against HCT-8 cell line (human colon cancer) using MTT assay
Bel-7402 = experiment: In vitro cytotoxicity against Bel7402 cell line (human liver cancer) using MTT assay

Q: What does the source list for CC[C@@]1(O)C(=O)OCc2c1cc1n(c2=O)Cc2cc3cc(OCC[n+]4cccc(C(C)=O)c4)ccc3nc2-1?
A: IC50 (KB): 3.21 µg/mL; IC50 (HCT-8): 3.01 µg/mL; IC50 (Bel-7402): 5 µg/mL

Q: Which results are given for CC[C@@]1(O)C(=O)OCc2c1cc1n(c2=O)Cc2cc3cc(OCC[n+]4cccc(C=O)c4)ccc3nc2-1?
A: IC50 (KB): 0.34 µg/mL; IC50 (HCT-8): 0.35 µg/mL; IC50 (Bel-7402): 3.73 µg/mL

Q: With CC[C@@]1(O)C(=O)OCc2c1cc1n(c2=O)Cc2cc3cc(OCCC[n+]4cccc(O)c4)ccc3nc2-1 as the compound, how does the IC50 (KB) read?
A: 0.04 µg/mL

Q: And the IC50 (HCT-8)?
A: 0.03 µg/mL

Q: What about the IC50 (Bel-7402) of the same compound?
A: 3.92 µg/mL

Q: CC[C@@]1(O)C(=O)OCc2c1cc1n(c2=O)Cc2cc3cc(OCCC[n+]4cccc(CO)c4)ccc3nc2-1 was tested. Which IC50 (KB) did it give?
A: 0.31 µg/mL

Q: And the IC50 (HCT-8)?
A: 0.34 µg/mL

Q: What about the IC50 (Bel-7402) of the same compound?
A: 2.87 µg/mL

Q: Which IC50 (KB) does the source give for CC[C@@]1(O)C(=O)OCc2c1cc1n(c2=O)Cc2cc3cc(OCCC[n+]4cccc(C(C)=O)c4)ccc3nc2-1 here?
A: 3.13 µg/mL

Q: And the IC50 (HCT-8)?
A: 3.15 µg/mL

Q: And the IC50 (Bel-7402)?
A: 5 µg/mL

Q: How did the IC50 (KB) turn out when CC[C@@]1(O)C(=O)OCc2c1cc1n(c2=O)Cc2cc3cc(OCCC[n+]4ccccc4)ccc3nc2-1 was run?
A: 0.03 µg/mL

Q: And the IC50 (HCT-8)?
A: 0.03 µg/mL

Q: What about the IC50 (Bel-7402) of the same compound?
A: 0.44 µg/mL

Q: With CC[C@@]1(O)C(=O)OCc2c1cc1n(c2=O)Cc2cc3cc(OCC[n+]4cccc(C(=O)O)c4)ccc3nc2-1 as the compound, how does the IC50 (KB) read?
A: 0.31 µg/mL

Q: What about the IC50 (HCT-8) of the same compound?
A: 0.27 µg/mL

Q: What about the IC50 (Bel-7402) of the same compound?
A: 5 µg/mL

Q: How did the IC50 (KB) turn out when CC[C@@]1(O)C(=O)OCc2c1cc1n(c2=O)Cc2cc3cc(OCC[n+]4cccc(C)c4)ccc3nc2-1 was run?
A: 0.63 µg/mL

Q: What about the IC50 (HCT-8) of the same compound?
A: 1.42 µg/mL

Q: And the IC50 (Bel-7402)?
A: 0.47 µg/mL

Q: Which IC50 (KB) does the source give for CC[C@@]1(O)C(=O)OCc2c1cc1n(c2=O)Cc2cc3cc(OCCC[n+]4cccc(C)c4)ccc3nc2-1 here?
A: < 0.005 µg/mL

Q: And the IC50 (HCT-8)?
A: < 0.005 µg/mL

Q: And the IC50 (Bel-7402)?
A: 0.04 µg/mL

Q: How did the IC50 (KB) turn out when CC[C@@]1(O)C(=O)OCc2c1cc1n(c2=O)Cc2cc3cc(OCC[n+]4cccc(O)c4)ccc3nc2-1 was run?
A: 0.32 µg/mL

Q: And the IC50 (HCT-8)?
A: 0.42 µg/mL

Q: What about the IC50 (Bel-7402) of the same compound?
A: 0.47 µg/mL

Q: Which results are given for CC[C@@]1(O)C(=O)OCc2c1cc1n(c2=O)Cc2cc3cc(OCCC[n+]4cccc(C=O)c4)ccc3nc2-1?
A: IC50 (KB): 0.27 µg/mL; IC50 (HCT-8): 0.17 µg/mL; IC50 (Bel-7402): 0.46 µg/mL

Q: How did the IC50 (KB) turn out when CC[C@@]1(O)C(=O)OCc2c1cc1n(c2=O)Cc2cc3cc(OCC[n+]4ccccc4)ccc3nc2-1 was run?
A: 0.33 µg/mL

Q: What about the IC50 (HCT-8) of the same compound?
A: 0.45 µg/mL

Q: And the IC50 (Bel-7402)?
A: 3.53 µg/mL

Q: CC[C@@]1(O)C(=O)OCc2c1cc1n(c2=O)Cc2cc3cc(OCC[n+]4cccc(CO)c4)ccc3nc2-1 was tested. Which IC50 (KB) did it give?
A: 3.28 µg/mL

Q: And the IC50 (HCT-8)?
A: 3.73 µg/mL

Q: And the IC50 (Bel-7402)?
A: 5 µg/mL

Q: CC[C@@]1(O)C(=O)OCc2c1cc1n(c2=O)Cc2cc3cc(OCCC[n+]4cccc(F)c4)ccc3nc2-1 was tested. Which IC50 (KB) did it give?
A: 3.4 µg/mL

Q: And the IC50 (HCT-8)?
A: 2.02 µg/mL

Q: And the IC50 (Bel-7402)?
A: 5 µg/mL

Q: CC[C@@]1(O)C(=O)OCc2c1cc1n(c2=O)Cc2cc3cc(OCC[n+]4cccc(F)c4)ccc3nc2-1 was tested. Which IC50 (KB) did it give?
A: 0.33 µg/mL

Q: What about the IC50 (HCT-8) of the same compound?
A: 0.38 µg/mL

Q: What about the IC50 (Bel-7402) of the same compound?
A: 5 µg/mL

Q: With CC[C@@]1(O)C(=O)OCc2c1cc1n(c2=O)Cc2cc3cc(OCCC[n+]4cccc(C(=O)O)c4)ccc3nc2-1 as the compound, how does the IC50 (KB) read?
A: 0.32 µg/mL

Q: What about the IC50 (HCT-8) of the same compound?
A: 0.33 µg/mL

Q: What about the IC50 (Bel-7402) of the same compound?
A: 0.44 µg/mL

Q: How did the IC50 (KB) turn out when CC[C@@]1(O)C(=O)OCc2c1cc1n(c2=O)Cc2cc3ccccc3nc2-1 [CAMPTOTHECIN] was run?
A: < 0.005 µg/mL

Q: What about the IC50 (HCT-8) of the same compound?
A: < 0.005 µg/mL

Q: What about the IC50 (Bel-7402) of the same compound?
A: 2.72 µg/mL (≈ 7.81 µM)

Q: With CC[C@@]1(O)C(=O)OCc2c1cc1n(c2=O)Cc2cc3c(CN(C)C)c(O)ccc3nc2-1.Cl [TOPOTECAN HYDROCHLORIDE] as the compound, how does the IC50 (KB) read?
A: 0.02 µg/mL

Q: What about the IC50 (HCT-8) of the same compound?
A: 0.03 µg/mL

Q: And the IC50 (Bel-7402)?
A: 0.4 µg/mL
